Here are results for four molecules from patent US20140162980A1, “NOVEL MICROBIOCIDAL DIOXIME ETHER DERIVATIVES” (SYNGENTA CROP PROTECTION LLC, priority 2010, published 2014).

Data set [1] has as its system Magnaporthe grisea (Pyricularia oryzae). Description: whole plant or invertebrate. The data set is classed as in vivo. Conditions: foliar, read-out: control of Magnaporthe grisea (percent disease control compared to untreated).
For the next data set, the system named is Alternaria solani. As to the kind of experiment: Alternaria solani / tomato / leaf disc (early blight). The data set is classed as in vivo. Conditions: foliar, tomato leaf disks cv. Baby, inoculated 2 days after application, assessed 5-7 days after application, read-out: control of Alternaria solani (percent disease control compared to untreated). On the procedure: Alternaria Solani/Tomato/Leaf Disc (Early Blight): Tomato leaf disks cv. Baby are placed on agar in multiwell plates (24-well format) and sprayed with the formulated test compound diluted in water at an application rate of 200 ppm. The leaf disks are inoculated with a spore suspension of the fungus 2 days after application. The inoculated leaf disks are incubated at 23° C./21° C.

In the next data set the test system is Pyrenophora teres. Description: Pyrenophora teres / barley / leaf disc preventative (net blotch). The data set is classed as in vivo. The note with it: foliar, barley leaf segments cv Hasso, inoculated two days after application, assessed 5-7 days after application, read-out: control of Pyrenophora teres (disease control compared to untreated). A digest of the protocol: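 Preventative leaf-disc test: 200 ppm spray, then spore inoculation after two days on barley cv Hasso segments. Incubation 20 °C, 65% relative humidity, 12 h light/12 h dark; efficacy rated against untreated checks at 5-7 days post-application.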

For data set [2], the system named is Blumeria graminis f. sp. tritici (Erysiphe graminis f. sp. tritici). Description: Blumeria graminis f. sp. tritici / wheat / leaf disc preventative (powdery mildew on wheat). The data set is classed as in vivo. Conditions: foliar, wheat leaf segments cv. Kanzler, inoculated 1 day after application, assessed 6-8 days after application, read-out: control of Blumeria graminis (percent disease control compared to untreated).

For data set [3], the system named is Puccinia recondita f. sp. tritici. As to the kind of experiment: Puccinia recondita f. sp. tritici / wheat / leaf disc curative (brown rust). The data set is classed as in vivo. Conditions: foliar, 200 ppm applied 1 day after inoculation, wheat leaf segments cv Kanzler, assessed 6-8 days after application, read-out: control of Puccinia recondita f. sp. tritici, curative (percent disease control compared to untreated). On the procedure: Puccinia Recondita f. Sp. Tritici/Wheat/Leaf Disc Curative (Brown Rust): Wheat leaf segments cv Kanzler were placed on agar in 24-well plates. The leaf segments were inoculated with a spore suspension of the fungus. The plates were stored in darkness at 19° C. and 75% relative humidity. The formulated test compound diluted in water was applied at an application rate of 200 ppm 1 day after inoculation.

In another data set the test system is Plasmopara viticola. Description: whole plant or invertebrate. Conditions: foliar, read-out: control of Plasmopara viticola (percent disease control compared to untreated). The data set is classed as in vivo.
In another data set the test system is Sclerotinia sclerotiorum. Description: Sclerotinia sclerotiorum / liquid culture (cottony rot). The data set is classed as cell-based. Conditions: PDB potato dextrose broth, 24° C., 3-4 days after application, read-out: control of Sclerotinia sclerotiorum (inhibition of growth, photometrically). As for the experimental part: Sclerotinia Sclerotiorum/Liquid Culture (Cottony Rot) Mycelia fragments of a newly grown liquid culture of the fungus are directly mixed into nutrient broth (PDB potato dextrose broth). After placing a (DMSO) solution of test compound into a microtiter plate at an application rate 200 ppm (96-well format) the nutrient broth containing the fungal material is added. The test plates are incubated at 24° C. and the inhibition of growth is determined photometrically 3-4 days after application.

In data set [4] the test system is Puccinia recondita f. sp. tritici. As to the kind of experiment: Puccinia recondita f. sp. tritici / wheat / leaf disc preventative (brown rust). The data set is classed as in vivo. Conditions: foliar, wheat leaf segments cv Kanzler, inoculated 1 day after application, assessed 7-9 days after application, read-out: control of Puccinia recondita f. sp. tritici, preventative (percent disease control compared to untreated).

The test system of data set [5] is Phaeosphaeria nodorum (Septoria nodorum). Description: Phaeosphaeria nodorum (Septoria nodorum) / wheat / leaf disc preventative (glume blotch). The data set is classed as in vivo. The note with it: Parastagonospora nodorum, foliar, wheat leaf segments cv Kanzler, inoculated 2 days after application, assessed 5-7 days after application, read-out: control of Phaeosphaeria nodorum (percent disease control compared to untreated).

Data set [6] has as its system Thanatephorus cucumeris (Rhizoctonia solani). As to the kind of experiment: Thanatephorus cucumeris (Rhizoctonia solani) / liquid culture (foot rot, damping-off). The note with it: PDB potato dextrose broth, 24° C., 3-4 days after application, read-out: control of Thanatephorus cucumeris (inhibition of growth, photometrically). The data set is classed as cell-based.
The test system of another data set is Pythium ultimum. As to the kind of experiment: Pythium ultimum / liquid culture (seedling damping off). The data set is classed as cell-based. Conditions: Globisporangium ultimum, PDB potato dextrose broth, 24° C., 2-3 days after application, read-out: control of Pythium ultimum (inhibition of growth, photometrically).
The subject of a further data set is Phytophthora infestans. Description: whole plant or invertebrate. The data set is classed as in vivo. Conditions: in Solanum lycopersicum, foliar, read-out: control of Phytophthora infestans (percent disease control compared to untreated).
Data set [7] deals with Botryotinia fuckeliana (Botrytis cinerea). Description: Botryotinia fuckeliana (Botrytis cinerea) / liquid culture (gray mould). The data set is classed as cell-based. Conditions: Vogels broth, 24° C., 3-4 days after application, read-out: control of Botryotinia fuckeliana (inhibition of growth, photometrically).

Regarding `Cc1ccc2c(n1)/C(=N/OCC(C)(C)CO/N=C1\CCCc3cc4c(nc31)CCCC4)CCC2` [P.40], the pest or weed control at 200 ppm (in [1]; in the data set with Alternaria solani; with Pyrenophora teres; in data set [2]; in [3]; in the data set on Plasmopara viticola) was not below 80% in each case. In addition, the pest or weed control at 200 ppm (in [4]; in data set [5]; in the data set with Phytophthora infestans) was not below 80% each time. In addition, the inhibition at 200 ppm (in the data set with Sclerotinia sclerotiorum; in data set [6]; with Pythium ultimum; in [7]) was not below 80% throughout.
`Cc1ccc2c(n1)/C(=N/OCCCO/N=C1\CCCc3cc4c(nc31)CCCC4)CCC2` [P.39]: the pest or weed control at 200 ppm (in [1]; in the data set on Alternaria solani; in the data set on Pyrenophora teres; in [2]; in data set [3]; with Plasmopara viticola) was not below 80% each time. Also, the pest or weed control at 200 ppm (in data set [4]; in data set [5]; in the data set with Phytophthora infestans) was not below 80% each time. Moreover, the inhibition at 200 ppm (in the data set on Sclerotinia sclerotiorum; in data set [6]; with Pythium ultimum; in [7]) was not below 80% each time.
For `c1ccc(-c2c3c(nc4ccccc24)/C(=N/OCCCO/N=C2\CCCc4c2nc2ccccc2c4-c2ccccc2)CCC3)cc1` [P.26], the melting point (as a rule, the temperature, or range, at which the solid turns liquid) lay within 205 to 210 °C.
`Clc1ccc2c(n1)/C(=N/OCC1(CO/N=C3\CCc4ccc(Cl)nc43)CC1)CC2` [P.21] showed a melting point of 170 to 173 °C.
